Converted amounts (≈) assume the structure as drawn. Where two headings read alike, the source gives them in different places.
Experiments:
[1] = system: P. aeruginosa mutants EPIR1S, EPIR9S, EPIR20L, EPIR43; assay: MIC of antimicrobials in TXA09155-resistant mutants; assay type: cell-based, Pseudomonas aeruginosa
Experimental: All resistant colonies were verified by determining the MIC to TXA09155. […] This two-component system regulates the expression of more than 100 genes in P. aeruginosa, including genes that code for efflux components (mexX), and plays a role in the resistance to cationic antimicrobial peptides and aminoglycoside antibiotics.
(§1) MIC assays were performed as described previously.

P. aeruginosa ATCC 27853 = assay: MIC / antibiotic potentiation assay, wild-type strain; conditions: for Antibiotic MIC in Presence of TXA09155 at a Concentration of 3.13: TXA09155 3.13 μg/mL; for Antibiotic MIC in Presence of TXA09155 at a Concentration of 25: TXA09155 25 μg/mL; for Emax: ratio between MIC without EPI and MIC in the presence of a maximal potentiating concentration of EPI (TXA09155); for antibiotic potentiated by TXA09155 up to x-fold: TXA09155 25 to 3.13 µg/mL
P. aeruginosa K767 (WT) = assay: MIC assay, strain K767; assay type: cell-based, Pseudomonas aeruginosa; conditions: antibiotic alone; for MIC: Pseudomonas aeruginosa, read-out: MICs K767 (WT)
Description: (§2) P. aeruginosa ATCC 27853 was obtained from the American Type Culture Collection (ATCC; Manassas, VA, USA). P. aeruginosa multidrug-resistant isolates were obtained from the CDC and FDA Antibiotic Resistance Isolate Bank (Atlanta, GA, USA). P. aeruginosa DA7232 (gyrA-T83I, parC-S80L) was a kind gift from Prof. Dan I. Andersson, Uppsala University, Uppsala, Sweden, and has been characterized elsewhere. P. aeruginosa strains K767 (WT), K1455 (mexAB-oprM overexpressed), K2415 (mexXY-oprM overexpressed), and K3698 (oprM∆) were obtained from Prof. Keith Poole, Queen’s University, Kingston, Ontario, Canada and have been characterized elsewhere. Bacterial cells were grown in cation-adjusted Mueller Hinton (CAMH) media, brain heart infusion broth (BHI), or tryptic soy agar (TSA) plates were all obtained from Becton, Dickinson, and Company (BD; Franklin Lakes, NJ, USA). Aztreonam, ceftazidime, moxifloxacin, levofloxacin, minocycline, tigecycline, chloramphenicol, nitrocefin, and imipenem were purchased from TOKU-E (Bellingham, WA, USA). Azithromycin was purchased from Tokyo Chemical Industry (Portland, OR, USA). Cotrimoxazole was purchased from Toronto Research Chemicals (Toronto, ON, Canada). Doxycycline and polymyxin B were purchased from Sigma-Aldrich (St. Louis, MO, USA). Ethidium bromide (EtBr) and glucose were purchased from VWR (Radnor, PA, USA). MC-04,124 and TXA01182 were synthesized at TAXIS Pharmaceuticals. Carbonyl cyanide 3-chlorophenylhydrazone (CCCP) was purchased from Enzo Life Sciences (Farmingdale, NY, USA). DiOC2 (3) and propidium iodide were obtained from Thermo Fisher Scientific (Waltham, MA, USA).
as §1

[2] = system: P. aeruginosa K1455 (mexAB-oprM overexpressed); assay: microbe, parasite or virus in culture; assay type: cell-based, Pseudomonas aeruginosa; conditions: for MIC: Pseudomonas aeruginosa, read-out: MICs K1455 (↑mexAB-oprM); for MIC Ratios K1455 (↑mexAB-oprM)/K3698 (∆oprM): effect of pump deletion
Description: as §2, §1

[3] = system: P. aeruginosa K2415 (mexXY-oprM overexpressed); assay: MIC / potentiation assay, strain K2415; assay type: cell-based, Pseudomonas aeruginosa; conditions: for MIC: Pseudomonas aeruginosa, read-out: MICs K2415 (↑mexXY-oprM)
Description: as §2, §1

[4] = system: P. aeruginosa K3698 (∆oprM); assay: MIC / potentiation assay, strain K3698; assay type: cell-based, Pseudomonas aeruginosa; conditions: for MIC: Pseudomonas aeruginosa, read-out: MICs K3698 (∆oprM)
Description: as §2, with “Aztreonam, ceftazidime, moxifloxacin, levofloxacin, minocycline, tigecycline, chloramphenicol, nitrocefin, and imipenem were purchased from TOKU-E (Bellingham, WA, USA).” left out, “Cotrimoxazole was purchased from Toronto Research Chemicals (Toronto, ON, Canada). Doxycycline and polymyxin B were purchased from Sigma-Aldrich (St. Louis, MO, USA).” left out
as §1

[5] = Pseudomonas aeruginosa, strain EPIR1S (phoQ-L175R)
[6] = Pseudomonas aeruginosa, strain EPIR20L (phoQ-H248D)
[7] = Pseudomonas aeruginosa, ATCC27853, read-out: Antibiotic MIC in Presence of TXA09155 at a Concentration of 0
[8] = Pseudomonas aeruginosa, ATCC27853, read-out: MICs, Lack of EPI
[9] = Pseudomonas aeruginosa, strain EPIR9S (phoQ-L175R)

| Compound | MIC [1, 5] [µg/mL] | MIC [1, 6] [µg/mL] | MIC (P. aeruginosa ATCC 27853; [7]) [µg/mL] | Antibiotic MIC in Presence of TXA09155 at a Concentration of 3.13 (P. aeruginosa ATCC 27853) [µg/mL] | Antibiotic MIC in Presence of TXA09155 at a Concentration of 25 (P. aeruginosa ATCC 27853) [µg/mL] | Emax (P. aeruginosa ATCC 27853) | MIC (P. aeruginosa K767 (WT)) [µg/mL] | MIC [2] [µg/mL] | MIC [3] [µg/mL] | Antibiotic MIC in Presence of TXA09155 at a Concentration of 12.5 (P. aeruginosa ATCC 27853) [µg/mL] | further results |
| --- | --- | --- | --- | --- | --- | --- | --- | --- | --- | --- | --- |
| NCC[C@H](O)C(=O)N[C@@H]1C[C@H](N)[C@@H](O[C@H]2O[C@H](CN)[C@@H](O)[C@H](O)[C@H]2O)[C@H](O)[C@H]1O[C@H]1O[C@H](CO)[C@@H](O)[C@H](N)[C@H]1O [AMK, amikacin] | 8 | 8 | – | – | – | – | – | – | – | – | – |
| CC[C@H]1OC(=O)[C@H](C)[C@@H](O[C@H]2C[C@@](C)(OC)[C@@H](O)[C@H](C)O2)[C@H](C)[C@@H](O[C@@H]2O[C@H](C)C[C@H](N(C)C)[C@H]2O)[C@](C)(O)C[C@@H](C)CN(C)[C@H](C)[C@@H](O)[C@]1(C)O [AZM, azithromycin] | 64 | 64 | – | – | – | – | – | – | – | – | MIC (P. aeruginosa ATCC 27853; ATCC 27853, parent strain): 64 µg/mL |
| C[C@H]1[C@H](NC(=O)/C(=N\OC(C)(C)C(=O)O)c2csc(N)n2)C(=O)N1S(=O)(=O)O [Aztreonam] | – | – | 8 | 4 | 0.25 | 32 | – | – | – | – | – |
| CC(C)(O/N=C(\C(=O)N[C@@H]1C(=O)N2C(C(=O)[O-])=C(C[n+]3ccccc3)CS[C@H]12)c1csc(N)n1)C(=O)O [CAZ, ceftazidime] | 2 | 2 | – | – | – | – | – | – | – | – | MIC (P. aeruginosa ATCC 27853; ATCC 27853, parent strain): 2 µg/mL |
| CO/N=C(\C(=O)N[C@@H]1C(=O)N2C(C(=O)[O-])=C(C[n+]3cccc4c3CCC4)CS[C@H]12)c1csc(N)n1 [Cefpirome] | – | – | 8 | 4 | 0.5 | 16 | 2 (≈ 3.89 µM) | 8 (≈ 15.5 µM) | 8 | 0.5 | MIC Ratios K1455 (↑mexAB-oprM) ± TXA09155 [2]: 8; MIC Ratios K1455 (↑mexAB-oprM)/K3698 (∆oprM) ([2]; antibiotic alone): 4; MIC Ratios K2415 (↑mexXY-oprM) ± TXA09155 [3]: 8; MIC [4]: 0.5 µg/mL; MIC Ratios K3698 (∆oprM) ± TXA09155 [4]: 2; antibiotic potentiated by TXA09155 up to x-fold (P. aeruginosa ATCC 27853): up to 16 fold; FICindex (P. aeruginosa ATCC 27853; sum of the FICindex of antibiotic and TXA09155, <0.5 synergistic): 0.25 |
| O=C(N[C@H](CO)[C@H](O)c1ccc([N+](=O)[O-])cc1)C(Cl)Cl [Chloramphenicol] | – | – | > 256 | >256 | 2 | >128 | 128 (≈ 396 µM) | > 256 | 128 | 4 | MIC [4]: 8 µg/mL; MIC (P. aeruginosa ATCC 27853; [8]): > 256 µg/mL |
| C[C@H]1c2cccc(O)c2C(=O)C2=C(O)[C@]3(O)C(=O)C(C(N)=O)=C(O)[C@@H](N(C)C)[C@@H]3[C@@H](O)[C@@H]21 [Doxycycline] | 16 | 16 | 32 | 16 | – | – | 32 (≈ 72 µM) | ≥ 256 | 32 | – | MIC [1, 9]: 16 µg/mL; MIC (P. aeruginosa ATCC 27853; [8]): 32 µg/mL |
| C[C@@H](O)[C@H]1C(=O)N2C(C(=O)O)=C(SCCN=CN)C[C@H]12 [Imipenem] | – | – | 2 | 2 | 2 | 1 | 2 (≈ 6.68 µM) | 1 (≈ 3.34 µM) | 1 | 2 | MIC Ratios K1455 (↑mexAB-oprM) ± TXA09155 [2]: 1; MIC Ratios K1455 (↑mexAB-oprM)/K3698 (∆oprM) ([2]; antibiotic alone): 1; MIC Ratios K2415 (↑mexXY-oprM) ± TXA09155 [3]: 1; MIC [4]: 2 µg/mL; MIC Ratios K3698 (∆oprM) ± TXA09155 [4]: 1; antibiotic potentiated by TXA09155 up to x-fold (P. aeruginosa ATCC 27853): not potentiated |
| C[C@@H](O)[C@H]1C(=O)N2C(C(=O)O)=C(S[C@@H]3CN[C@H](C(=O)N(C)C)C3)[C@H](C)[C@H]12 [MEM, meropenem] | 2 | 2 | – | – | – | – | – | – | – | – | MIC [1, 9]: 1 µg/mL |
| CN(C)c1ccc(O)c2c1C[C@H]1C[C@H]3[C@H](N(C)C)C(O)=C(C(N)=O)C(=O)[C@@]3(O)C(O)=C1C2=O [Minocycline] | – | – | 32 | 16 | 0.125 | 256 | 64 (≈ 140 µM) | > 256 | 32 | 0.25 | MIC [4]: 1 µg/mL; MIC (P. aeruginosa ATCC 27853; [8]): 32 µg/mL |
| COc1c(N2C[C@@H]3CCCN[C@@H]3C2)c(F)cc2c(=O)c(C(=O)O)cn(C3CC3)c12 [Moxifloxacin] | – | – | 2 | 2 | 0.016 | – | – | – | – | 0.031 | MIC (P. aeruginosa ATCC 27853; [8]): 2 µg/mL |
| CN(C)c1cc(NC(=O)CNC(C)(C)C)c(O)c2c1C[C@H]1C[C@H]3[C@H](N(C)C)C(O)=C(C(N)=O)C(=O)[C@@]3(O)C(O)=C1C2=O [TGC, tigecycline] | 8 | 8 | – | – | – | – | – | – | – | – | MIC (P. aeruginosa ATCC 27853; ATCC 27853, parent strain): 8 µg/mL |
| Cotrimoxazole | – | – | – | 256 | 2 | 128 | – | – | – | 4 | MICs K767 (WT) (P. aeruginosa K767 (WT)): 64 µg/mL; MICs K1455 (↑mexAB-oprM) ([2]; antibiotic alone): > 256 µg/mL; MICs K2415 (↑mexXY-oprM) ([3]; antibiotic alone): 64 µg/mL; MICs K3698 (∆oprM) ([4]; antibiotic alone): 4 µg/mL; Antibiotic MIC in Presence of TXA09155 at a Concentration of 0 (P. aeruginosa ATCC 27853; TXA09155 0 μg/mL): 256 µg/mL |
| polymyxin B [PMB] | – | – | – | – | – | – | – | – | – | – | MIC ([1]; strain EPIR1S (phoQ-L175R)): 4 µg/mL; MIC ([1]; strain EPIR9S (phoQ-L175R)): 2 µg/mL; MIC ([1]; strain EPIR20L (phoQ-H248D)): 4 µg/mL; MIC ([1]; strain EPIR43 (ompH-Q127X)): 4 µg/mL; MIC (P. aeruginosa ATCC 27853; ATCC 27853, parent strain): 2 µg/mL |
